What was measured:
rape = test: Test B pre/postemergence rape; format: in vivo, Brassica napus; conditions: Preemergence, scale of 0 to 10 where 0 is no effect and 10 is complete control
Outline: (§1)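 Herbicidal effect was estimated by eye on a ten-point control scale after plants spent twelve to sixteen days in a greenhouse following soil or foliar treatment. Foliar sprays targeted plants at one to four leaves; all doses were formulated in a non-phytotoxic solvent with surfactant.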

crabgrass = test: Test B pre/postemergence crabgrass; format: in vivo, Digitaria sanguinalis; conditions: Preemergence
Outline: as §1

blackgrass = test: Test B pre/postemergence blackgrass; format: in vivo, Alopecurus myosuroides; conditions: Preemergence
Outline: as §1

morningglory = test: Test B pre/postemergence morningglory; format: in vivo, Ipomoea hederacea; conditions: Preemergence, scale of 0 to 10 where 0 is no effect and 10 is complete control
Outline: as §1

velvetleaf = test: Test B pre/postemergence velvetleaf; format: in vivo, Abutilon theophrasti; conditions: Preemergence, scale of 0 to 10 where 0 is no effect and 10 is complete control
Outline: as §1

wild oat = test: Test B pre/postemergence wild oat; format: in vivo, Avena fatua; conditions: Preemergence, scale of 0 to 10 where 0 is no effect and 10 is complete control
Outline: as §1

wheat = test: Test B pre/postemergence wheat; format: in vivo, Triticum aestivum; conditions: Preemergence, scale of 0 to 10 where 0 is no effect and 10 is complete control
Outline: as §1

bedstraw = test: Test B pre/postemergence bedstraw; format: in vivo, Galium aparine; conditions: Preemergence
Outline: as §1

surinam grass = test: Test B pre/postemergence surinam grass; format: in vivo, Brachiaria decumbens; conditions: Preemergence
Outline: as §1

soybean = test: Test B pre/postemergence soybean; format: in vivo, Glycine max; conditions: Preemergence, scale of 0 to 10 where 0 is no effect and 10 is complete control
Outline: as §1

cocklebur = test: Test B pre/postemergence cocklebur; format: in vivo, Xanthium strumarium; conditions: Preemergence
Outline: as §1

giant foxtail = test: Test B pre/postemergence giant foxtail; format: in vivo, Setaria faberii; conditions: Preemergence, scale of 0 to 10 where 0 is no effect and 10 is complete control
Outline: as §1

corn = test: Test B pre/postemergence corn; format: in vivo, Zea mays; conditions: Preemergence
Outline: as §1

purple nutsedge = test: Test B pre/postemergence purple nutsedge; format: in vivo, Cyperus rotundus; conditions: Preemergence, scale of 0 to 10 where 0 is no effect and 10 is complete control
Outline: as §1

pigweed = test: Test B pre/postemergence pigweed; format: in vivo, Amaranthus retroflexus; conditions: Preemergence, scale of 0 to 10 where 0 is no effect and 10 is complete control
Outline: as §1

sugar beet = test: Test B pre/postemergence sugar beet; format: in vivo, Beta vulgaris; conditions: Preemergence, scale of 0 to 10 where 0 is no effect and 10 is complete control
Outline: as §1

[1] = Rate 62 g/ha, scale of 0 to 10 where 0 is no effect and 10 is complete control
[2] = Rate 125 g/ha, scale of 0 to 10 where 0 is no effect and 10 is complete control
[3] = Rate 250 g/ha, scale 0 to 10 (0 no effect, 10 complete control)
[4] = Rate 500 g/ha, scale of 0 to 10 where 0 is no effect and 10 is complete control

With `CCn1ncc(Cn2c(=O)on(C(=O)N(c3ccccc3)C(C)C)c2=O)c1Cl` [Compound 683] the “Rape plant response rating” value (rape; Rate 62 g/ha) was 0, the “Plant response rating, Rape” value (rape; Rate 125 g/ha) was 0 and the “Plant response rating, Rape” value (rape; Rate 500 g/ha) was 0. The “Crabgrass plant response rating” value (crabgrass; [1]) was 6, the “Plant response rating, Crabgrass” value (crabgrass; [2]) was 8 and the “Plant response rating, Crabgrass” value (crabgrass; [3]) was 9. The “Plant response rating, Crabgrass” value (crabgrass; [4]) was 10, the “Blackgrass plant response rating” value (blackgrass; [1]) was 1 and the “Plant response rating, Blackgrass” value (blackgrass; [2]) was 3. For the same compound, the “Plant response rating, Blackgrass” value (blackgrass; [3]) was 7, the “Plant response rating, Blackgrass” value (blackgrass; [4]) was 9 and the “Morningglory plant response rating” value (morningglory; Rate 62 g/ha) was 0. The “Plant response rating, Morningglory” value (morningglory; Rate 125 g/ha) was 0, the “Plant response rating, Morningglory” value (morningglory; Rate 500 g/ha) was 2 and the “Velvetleaf plant response rating” value (velvetleaf; Rate 62 g/ha) was 0. The “Plant response rating, Velvetleaf” value (velvetleaf; Rate 125 g/ha) was 0, the “Plant response rating, Velvetleaf” value (velvetleaf; Rate 500 g/ha) was 0 and the “Wild oats plant response rating” value (wild oat; Rate 62 g/ha) was 0. For the same compound, the “Plant response rating, Wild oats” value (wild oat; Rate 125 g/ha) was 0, the “Plant response rating, Wild oats” value (wild oat; Rate 500 g/ha) was 8 and the “Wheat plant response rating” value (wheat; Rate 62 g/ha) was 0. For the same compound, the “Plant response rating, Wheat” value (wheat; Rate 125 g/ha) was 0, the “Plant response rating, Wheat” value (wheat; Rate 500 g/ha) was 0 and the “Bedstraw plant response rating” value (bedstraw; [1]) was 0. For the same compound, the “Plant response rating, Bedstraw” value (bedstraw; [2]) was 0, the “Plant response rating, Bedstraw” value (bedstraw; [3]) was 0 and the “Plant response rating, Bedstraw” value (bedstraw; [4]) was 0. The “B. signalgrass plant response rating” value (surinam grass; [1]) was 0, the “Plant response rating, B. signalgrass” value (surinam grass; [2]) was 0 and the “Plant response rating, B. signalgrass” value (surinam grass; [3]) was 4. For the same compound, the “Plant response rating, B. signalgrass” value (surinam grass; [4]) was 9, the “Soybean plant response rating” value (soybean; Rate 62 g/ha) was 0 and the “Plant response rating, Soybean” value (soybean; Rate 125 g/ha) was 0. For the same compound, the “Plant response rating, Soybean” value (soybean; Rate 500 g/ha) was 0, the “Cocklebur plant response rating” value (cocklebur; [1]) was 0 and the “Plant response rating, Cocklebur” value (cocklebur; [2]) was 0. For the same compound, the “Plant response rating, Cocklebur” value (cocklebur; [3]) was 0, the “Plant response rating, Cocklebur” value (cocklebur; [4]) was 0 and the “Giant foxtail plant response rating” value (giant foxtail; Rate 62 g/ha) was 8. The “Plant response rating, Giant foxtail” value (giant foxtail; Rate 125 g/ha) was 9, the “Plant response rating, Giant foxtail” value (giant foxtail; Rate 500 g/ha) was 10 and the “Corn plant response rating” value (corn; [1]) was 0. The “Plant response rating, Corn” value (corn; [2]) was 0, the “Plant response rating, Corn” value (corn; [3]) was 0 and the “Plant response rating, Corn” value (corn; [4]) was 3. The “Nutsedge plant response rating” value (purple nutsedge; Rate 62 g/ha) was 0, the “Plant response rating, Nutsedge” value (purple nutsedge; Rate 125 g/ha) was 0 and the “Plant response rating, Nutsedge” value (purple nutsedge; Rate 500 g/ha) was 0. For the same compound, the “Redroot pigweed plant response rating” value (pigweed; Rate 62 g/ha) was 0, the “Plant response rating, Redroot pigweed” value (pigweed; Rate 125 g/ha) was 2 and the “Plant response rating, Redroot pigweed” value (pigweed; Rate 500 g/ha) was 6. The “Sugarbeets plant response rating” value (sugar beet; Rate 62 g/ha) was 0, the “Plant response rating, Sugarbeets” value (sugar beet; Rate 125 g/ha) was 0 and the “Plant response rating, Sugarbeets” value (sugar beet; Rate 500 g/ha) was 0.

From patent US6737383B1, “Herbicidal oxadiazolidines” (priority 1999, dated 2004)
